Measurements from PMC555771 (Journal of Biomedicine and Biotechnology, 2004).

Experiments:
[1] = tested on: cynomolgus monkeys fed the HCHF diet; assay type: in vivo, cynomolgus monkey; conditions: single iv injection 20 mg/kg, at day 7, n=2, P<.05
[2] = tested on: baboons fed the HCHF diet; assay type: in vivo, baboon
[3] = tested on: baboons; conditions: in vivo
[4] = tested on: CETP; conditions: ref [10]; cited from earlier work
[5] = tested on: baboons; assay: IgG levels, body weights and food consumption in baboons; conditions: during the study (data not shown)

truncated apoC-I peptide: 38 amino acid N-terminal fragment of apoC-I peptide based on human sequences, made by solid-phase synthesis; CETP inhibitor (TPDVSSALDKLKEFGNTLEDKARELISRIKQSELSAKM; UniProt P02654 27-64, looked up, fragment)
maximum decrease in plasma LDL cholesterol levels [1]: 26.5 ± 4.5%
day by which VLDL + LDL cholesterol reached baseline values ([2]; intravenous, 10, 15, 20 mg/kg on days 0, 7, 14, n=3): ≤ 25 days
maximum increase in HDL cholesterol concentration ([2]; intravenous, 10, 15, 20 mg/kg on days 0, 7, 14, n=3, P<.05): 20%
change in plasma triglycerides ([2]; intravenous, 10, 15, 20 mg/kg on days 0, 7, 14, until day 19, except at day 4, n=3): decreased
day on which VLDL + LDL cholesterol returned to baseline values ([2]; subcutaneous, 10, 15, 20 mg/kg on days 0, 7, 14, n=3): 28 days
maximum decrease in VLDL + LDL cholesterol ([2]; subcutaneous, 10, 15, 20 mg/kg on days 0, 7, 14, on day 19, n=3): 20%
maximum increase in HDL cholesterol ([2]; subcutaneous, 10, 15, 20 mg/kg on days 0, 7, 14, on day 23, n=3): 20%
plasma IgG levels, change in response to peptide infusion [3]: did not change significantly
CETP activity in the plasma of low-HDL baboons [4]: inhibited CETP activity
body weights [5]: no change
food consumption [5]: no change
